Measurements from PubChem BioAssay AID248 (DTP/NCI, 2004).
“And” between values parts separate entries of the source, which are not always exact repeats. Equal entries are not always repeated. Inconclusive results and toxic doses are left out. No stated cut-off is given here; in the data, active means T/C of 150% or more; inactive means T/C below 125%.

Test system: L1210 leukemia ip in BDF1 mice, survival T/C
Test: NCI In Vivo Anticancer Drug Screen. Data for tumor model L1210 Leukemia (intraperitoneal) in B6D2F1 (BDF1) mice
Details: endpoint: mean survival time, higher = longer survival
Description: The antitumor activity of compounds was measured in mice bearing transplantable tumors. Survival or tumor size were measured and the results are expressed as the measurement made in the treated group (T) divided by the measurement made in the vehicle treated control group (C). The tumor model used in this assay is L1210 Leukemia (intraperitoneal) in B6D2F1 (BDF1) mice

[1] = dose: 50.0 mg/kg/injection, schedule: Q01DX001 (ip), vehicle: carboxymethylcellulose (CMC)
[2] = dose: 100.0 mg/kg/injection, schedule: Q01DX001 (ip), vehicle: carboxymethylcellulose (CMC)
[3] = dose: 200.0 mg/kg/injection, schedule: Q01DX001 (ip), vehicle: carboxymethylcellulose (CMC)
[4] = dose: 400.0 mg/kg/injection, schedule: Q01DX001 (ip), vehicle: carboxymethylcellulose (CMC)
[5] = dose: 25.0 mg/kg/injection, schedule: Q01DX009 (ip), vehicle: Klucel (hydroxypropylcellulose) (HPC)
[6] = dose: 50.0 mg/kg/injection, schedule: Q01DX009 (ip), vehicle: Klucel (hydroxypropylcellulose) (HPC)
[7] = dose: 100.0 mg/kg/injection, schedule: Q01DX009 (ip), vehicle: Klucel (hydroxypropylcellulose) (HPC)
[8] = dose: 100.0 mg/kg/injection, schedule: Q01DX001 (ip), vehicle: saline
[9] = dose: 200.0 mg/kg/injection, schedule: Q01DX001 (ip), vehicle: saline
[10] = dose: 400.0 mg/kg/injection, schedule: Q01DX001 (ip), vehicle: saline
[11] = dose: 100.0 mg/kg/injection, schedule: Q01DX009 (ip), vehicle: saline
[12] = dose: 100.0 mg/kg/injection, schedule: Q04DX003 (ip), vehicle: saline
[13] = dose: 200.0 mg/kg/injection, schedule: Q01DX009 (ip), vehicle: saline
[14] = dose: 200.0 mg/kg/injection, schedule: Q04DX003 (ip), vehicle: saline
[15] = dose: 400.0 mg/kg/injection, schedule: Q01DX009 (ip), vehicle: saline
[16] = dose: 400.0 mg/kg/injection, schedule: Q04DX003 (ip), vehicle: saline
[17] = dose: 100.0 mg/kg/injection, schedule: Q04DX003 (ip), vehicle: saline with Tween-80
[18] = dose: 200.0 mg/kg/injection, schedule: Q04DX003 (ip), vehicle: saline with Tween-80
[19] = dose: 400.0 mg/kg/injection, schedule: Q04DX003 (ip), vehicle: saline with Tween-80
[20] = dose: 200.0 mg/kg/injection, schedule: Q01DX009 (ip), vehicle: Klucel (hydroxypropylcellulose) (HPC)
[21] = dose: 400.0 mg/kg/injection, schedule: Q01DX009 (ip), vehicle: Klucel (hydroxypropylcellulose) (HPC)

Measured: T/C

CC(C)(O)c1cccc2c(C(C)(C)O)cccc12
inactive: [1] 102 % of control | [2] 102 % of control | [3] 94 % of control | [4] 105 % of control

CCC/C(=N/NC(=O)C1CCCO1)c1ccccc1 (centres undefined)
inactive: [5] 104 % of control | [6] 102 % of control | [7] 104 % of control and 88 % of control

CCNC(=O)SCCSC(=O)NCC
inactive: dose: 100.0 mg/kg/injection, schedule: Q01DX009 (ip), vehicle: other 92 % of control | dose: 200.0 mg/kg/injection, schedule: Q01DX009 (ip), vehicle: other 93 % of control | dose: 400.0 mg/kg/injection, schedule: Q01DX009 (ip), vehicle: other 92 % of control

CC(C)C(CCCC(=O)O)C(=O)O (centres undefined)
inactive: [1] 96 % of control | [2] 96 % of control | [3] 96 % of control

c1ccc(C(C(=Nc2ccc(Cc3ccc(N=C(C(c4ccccc4)c4ccccc4)N4CC4)cc3)cc2)N2CC2)c2ccccc2)cc1
inactive: dose: 70.0 mg/kg/injection, schedule: Q01DX009 (ip), vehicle: saline 103 % of control | dose: 140.0 mg/kg/injection, schedule: Q01DX009 (ip), vehicle: saline 104 % of control | dose: 280.0 mg/kg/injection, schedule: Q01DX009 (ip), vehicle: saline 93 % of control

O=C1C2=C(CCCC2)C(=O)c2ccccc21
inactive: dose: 50.0 mg/kg/injection, schedule: Q01DX001 (ip), vehicle: saline 93 % of control | [8] 100 % of control | [9] 96 % of control | [10] 102 % of control

CC(N)C(=O)NCC(=O)NCC(=O)O (centres undefined)
inactive: [11] 103 % of control | [12] 100 % of control | [13] 96 % of control | [14] 96 % of control | [15] 98 % of control | [16] 94 % of control

OC1CCC2CCC(O)CC2C1 (centres undefined)
inactive: [17] 105 % of control | [18] 105 % of control | [19] 92 % of control

O=C1c2ccccc2C(=O)c2c1ccc1c(S(=O)(=O)Cl)cccc21
inactive: dose: 100.0 mg/kg/injection, schedule: Q04DX002 (ip), vehicle: saline 122 % of control | dose: 200.0 mg/kg/injection, schedule: Q04DX002 (ip), vehicle: saline 97 % of control | dose: 400.0 mg/kg/injection, schedule: Q04DX002 (ip), vehicle: saline 94 % of control

O=C(Nc1cccc(C(=O)O)c1)Nc1cccc(Cl)c1Cl
inactive: [7] 98 % of control | [20] 95 % of control | [21] 105 % of control

C=CCc1ccc(OC(=O)Nc2cccc3ccccc23)c(OC)c1
inactive: dose: 100.0 mg/kg/injection, schedule: Q04DX002 (ip), vehicle: Klucel (hydroxypropylcellulose) (HPC) 96 % of control | dose: 200.0 mg/kg/injection, schedule: Q04DX002 (ip), vehicle: Klucel (hydroxypropylcellulose) (HPC) 124 % of control | dose: 400.0 mg/kg/injection, schedule: Q04DX002 (ip), vehicle: Klucel (hydroxypropylcellulose) (HPC) 93 % of control

CC(=O)Nc1cccc(OCc2cccc([N+](=O)[O-])c2)c1
inactive: [2] 97 % of control | [3] 92 % of control | [4] 108 % of control

CCCN1c2c(nc(N)[nH]c2=O)NCC1CNc1ccc(C(=O)NC(CCC(=O)O)C(=O)O)cc1 (centres undefined)
inactive: [11] 96 % of control | [12] 108 % of control | [13] 101 % of control | [14] 97 % of control | [15] 96 % of control | [16] 101 % of control

CC1(Br)C(=O)C(O)=C(Br)C1=O (centres undefined)
inactive: dose: 75.0 mg/kg/injection, schedule: Q01DX001 (ip), vehicle: saline 104 % of control | dose: 150.0 mg/kg/injection, schedule: Q01DX001 (ip), vehicle: saline 106 % of control

CCCCCCOC(=O)Nc1ccc([N+](=O)[O-])cc1OC
inactive: [7] 103 % of control | [20] 100 % of control | [21] 95 % of control

CCc1ccccc1NC(=O)Sc1cccc(C)c1
inactive: [5] 96 % of control | [6] 96 % of control | [7] 98 % of control and 103 % of control | dose: 100.0 mg/kg/injection, schedule: Q04DX003 (ip), vehicle: Klucel (hydroxypropylcellulose) (HPC) 100 % of control | dose: 200.0 mg/kg/injection, schedule: Q04DX003 (ip), vehicle: Klucel (hydroxypropylcellulose) (HPC) 105 % of control

C/C=C/C[P+](Cc1ccccc1)(c1ccccc1)c1ccccc1
inactive: dose: 3.13 mg/kg/injection, schedule: Q01DX009 (ip), vehicle: saline with Tween-80 103 % of control | dose: 12.5 mg/kg/injection, schedule: Q01DX009 (ip), vehicle: saline with Tween-80 120 % of control and 91 % of control

COc1cccc([Si](C)(C)[Si](C)C)c1
inactive: [12] 98 % of control | [14] 110 % of control | [16] 96 % of control

COC1(c2ccco2)OC1(C)C (centres undefined)
inactive: dose: 5.0 mg/kg/injection, schedule: Q01DX009 (ip), vehicle: saline with Tween-80 94 % of control | dose: 5.0 mg/kg/injection, schedule: Q04DX003 (ip), vehicle: saline with Tween-80 96 % of control | dose: 10.0 mg/kg/injection, schedule: Q01DX009 (ip), vehicle: saline with Tween-80 97 % of control | dose: 10.0 mg/kg/injection, schedule: Q04DX003 (ip), vehicle: saline with Tween-80 102 % of control | dose: 20.0 mg/kg/injection, schedule: Q01DX009 (ip), vehicle: saline with Tween-80 116 % of control | dose: 20.0 mg/kg/injection, schedule: Q04DX003 (ip), vehicle: saline with Tween-80 98 % of control

CSCCC(NC(=O)NS(=O)(=O)c1ccc(C)cc1)C(=O)O (centres undefined)
inactive: [17] 96 % of control | [18] 97 % of control | [19] 100 % of control

CCN(CC)Cc1nc2nc(Cl)c(Cl)nc2[nH]1
inactive: dose: 25.0 mg/kg/injection, schedule: Q01DX009 (ip), vehicle: saline with Tween-80 97 % of control | dose: 50.0 mg/kg/injection, schedule: Q01DX009 (ip), vehicle: saline with Tween-80 105 % of control | [17] 99 % of control

CCOC(=O)c1sc(NC(C)=O)c(C(=O)OCC)c1C
inactive: [11] 96 % of control | [17] 98 % of control | [13] 101 % of control | [18] 114 % of control | [15] 101 % of control | [19] 96 % of control

CCN(CC)C(=O)COC(=O)c1cccc2[nH]ccc12
inactive: [17] 102 % of control | [18] 100 % of control | [19] 102 % of control

Cc1cnc(Cl)[nH]1 (tested in a mixture with another compound)
inactive: dose: 100.0 mg/kg/injection, schedule: Q04DX002 (ip), vehicle: saline with Tween-80 100 % of control | dose: 200.0 mg/kg/injection, schedule: Q04DX002 (ip), vehicle: saline with Tween-80 113 % of control | dose: 400.0 mg/kg/injection, schedule: Q04DX002 (ip), vehicle: saline with Tween-80 113 % of control

O=C(Nc1ccc(S(=O)(=O)Nc2ccc(N=Nc3ccc(S(=O)(=O)Nc4nccs4)cc3)cc2)cc1)C(N1CC1)(N1CC1)N1CC1
inactive: dose: 15.0 mg/kg/injection, schedule: Q01DX001 (ip), vehicle: saline 105 % of control | dose: 30.0 mg/kg/injection, schedule: Q01DX001 (ip), vehicle: saline 105 % of control

CC(=O)OC1C(OS(=O)(=O)c2ccc(C)cc2)C(COC(=O)c2ccccc2)OC1n1cnc2c(NC(=O)c3ccccc3)ncnc21 (centres undefined)
inactive: dose: 100.0 mg/kg/injection, schedule: Q01DX005 (ip), vehicle: saline 97 % of control | dose: 200.0 mg/kg/injection, schedule: Q01DX005 (ip), vehicle: saline 90 % of control

CCCCCCCCCCCCCCCC(=O)OCCCCCCCCCC
inactive: [17] 100 % of control | [18] 87 % of control | [19] 95 % of control

Nc1nc(N)c(N=Nc2ccc(S(=O)(=O)c3ccc(N=Nc4c(N)nc(N)[nH]c4=O)cc3)cc2)c(=O)[nH]1
inactive: [8] 91 % of control | [9] 96 % of control | [10] 91 % of control

CC(C)(O)C(=NCc1ccccc1)c1ccccc1
inactive: dose: 75.0 mg/kg/injection, schedule: Q04DX003 (ip), vehicle: other 97 % of control | dose: 150.0 mg/kg/injection, schedule: Q04DX003 (ip), vehicle: other 92 % of control | dose: 300.0 mg/kg/injection, schedule: Q04DX003 (ip), vehicle: other 98 % of control
